Experimental data as given in ChEMBL document CHEMBL4316606, “Discovery of novel 2,3-dihydro-1H-inden-1-amine derivatives as selective monoamine oxidase B inhibitors” (Bioorg Med Chem Lett, 2019).

Assays:
[1] = target: T1, Amine oxidase [flavin-containing] B (Homo sapiens, UniProt P27338); test: Inhibition of recombinant human MAOB expressed in baculovirus infected BTI insect cells using p-tyramine as substrate preincubated for 30 mins followed by substrate addition and measured over 15 mins by Amplex red reagent/horseradish peroxidase coupled fluorescence assay
T1 sequence (P27338 whole entry): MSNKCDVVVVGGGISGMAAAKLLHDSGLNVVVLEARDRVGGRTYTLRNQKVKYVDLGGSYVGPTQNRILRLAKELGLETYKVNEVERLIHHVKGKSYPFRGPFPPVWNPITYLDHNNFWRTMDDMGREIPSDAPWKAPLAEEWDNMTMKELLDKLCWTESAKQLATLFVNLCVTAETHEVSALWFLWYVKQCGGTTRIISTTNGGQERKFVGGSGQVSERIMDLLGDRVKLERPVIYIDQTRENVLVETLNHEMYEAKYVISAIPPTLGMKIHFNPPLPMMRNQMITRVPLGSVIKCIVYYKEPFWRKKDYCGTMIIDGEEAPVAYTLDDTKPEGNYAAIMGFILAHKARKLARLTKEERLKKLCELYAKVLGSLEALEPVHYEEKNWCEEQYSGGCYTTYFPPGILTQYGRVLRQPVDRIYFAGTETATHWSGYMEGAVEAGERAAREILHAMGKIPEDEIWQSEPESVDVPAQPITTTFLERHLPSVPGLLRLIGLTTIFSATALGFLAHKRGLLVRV

[2] = target: T2, Amine oxidase [flavin-containing] A (Homo sapiens, UniProt P21397); test: Inhibition of recombinant human MAOA expressed in baculovirus infected BTI insect cells using p-tyramine as substrate preincubated for 30 mins followed by substrate addition and measured over 15 mins by Amplex red reagent/horseradish peroxidase coupled fluorescence assay
T2 sequence (P21397 whole entry): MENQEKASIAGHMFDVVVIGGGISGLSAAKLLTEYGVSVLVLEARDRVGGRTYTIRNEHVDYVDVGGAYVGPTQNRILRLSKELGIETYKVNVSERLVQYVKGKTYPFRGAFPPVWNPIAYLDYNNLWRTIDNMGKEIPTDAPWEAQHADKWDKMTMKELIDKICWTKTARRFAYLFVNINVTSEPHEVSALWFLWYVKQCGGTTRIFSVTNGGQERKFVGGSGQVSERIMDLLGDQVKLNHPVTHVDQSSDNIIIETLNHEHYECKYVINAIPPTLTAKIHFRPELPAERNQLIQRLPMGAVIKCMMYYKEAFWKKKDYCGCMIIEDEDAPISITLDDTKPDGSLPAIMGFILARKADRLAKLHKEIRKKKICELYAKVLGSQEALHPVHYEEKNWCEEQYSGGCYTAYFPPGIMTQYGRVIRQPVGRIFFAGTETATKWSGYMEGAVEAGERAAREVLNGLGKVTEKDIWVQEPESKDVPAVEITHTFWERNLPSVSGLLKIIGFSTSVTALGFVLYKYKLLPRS

Homo sapiens = species on record: Homo sapiens; test: Selectivity index, ratio of IC50 for recombinant human MAOA expressed in baculovirus infected BTI insect cells to IC50 for recombinant human MAOB expressed in baculovirus infected BTI insect cells

Row | SMILES | IC50 [1] | IC50 [2] | Ratio IC50 (Homo sapiens)
1 | C#CCNC1CCc2c(OCCc3cc(NC(=O)C(C)(C)C)ccc3F)cccc21 (stereo not drawn) | > 20000 nM | – | –
2 | C#CCNC1CCc2c(OCCc3cc(NC(=O)c4cccc(F)c4)ccc3Cl)cccc21 (stereo not drawn) | > 20000 nM | – | –
3 | C#CCNC1CCc2c(SCc3ccc(F)cc3)cccc21 (stereo not drawn) | 240 nM | < 100 nM | –
4 | C#CCNC1CCc2c(OCCc3cc(NC(=O)c4ccc(Cl)cc4)ccc3Cl)cccc21 (stereo not drawn) | > 20000 nM | – | –
5 | C#CCNC1CCc2c(OCCc3cc(NC(=O)COC(C)=O)ccc3Cl)cccc21 (stereo not drawn) | 480 nM | 436000 nM | 909
6 | C#CCNC1CCc2c(OCCc3cccc(NC(=O)c4ccc(Cl)cc4)c3)cccc21 (stereo not drawn) | 360 nM | – | –
7 | C#CCNC1CCc2c(SCc3ccc(C(C)(C)C)cc3)cccc21 (stereo not drawn) | > 20000 nM | – | –
8 | C#CCNC1CCc2c(SCc3ccc(Cl)cc3)cccc21 (stereo not drawn) | 180 nM | 230 nM | 1.2
9 | C#CCNC1CCc2c(OCCc3cccc4ccccc34)cccc21 (stereo not drawn) | 1900 nM | – | –
10 | C#CCNC1CCc2c(OCCc3cc(NC(=O)c4ccc(F)cc4)ccc3Cl)cccc21 (stereo not drawn) | 5100 nM | – | –
11 | C#CCNC1CCc2c(OCCc3cc(NC(=O)c4ccccc4)ccc3Cl)cccc21 (stereo not drawn) | > 20000 nM | – | –
12 | C#CCNC1CCc2c(OCCc3cc(NC(=O)CO)ccc3Cl)cccc21 (stereo not drawn) | 270 nM | 252000 nM | 934
13 | C#CCNC1CCc2c(OCCc3cc(NC(C)=O)ccc3Cl)cccc21 (stereo not drawn) | 590 nM | 85200 nM | 144

Now from value to compound, other results behind:

Row | IC50 [1] | IC50 [2] | SMILES | Ratio IC50 (Homo sapiens)
14 | 1860 nM | – | C#CCNC1CCc2c(NCc3cccc(F)c3)cccc21 (stereo not drawn) | –
15 | 110 nM | 94300 nM | C#CCNC1CCc2c(NCc3cccc(Br)c3)cccc21 (stereo not drawn) | 857
16 | 710 nM | – | C#CCNC1CCc2c(NCc3cccc(C)c3)cccc21 (stereo not drawn) | –
17 | 250 nM | 43100 nM | C#CCNC1CCc2c(NCc3ccc(C)cc3)cccc21 (stereo not drawn) | 172
18 | > 20000 nM | – | C#CCNC1CCc2c(NCc3ccccc3)cccc21 (stereo not drawn) | –
19 | 2700 nM | – | C#CCNC1CCc2c(OCc3cccc(F)c3)cccc21 (stereo not drawn) | –
20 | 980 nM | – | C#CCNC1CCc2c(NCc3ccc(F)cc3)cccc21 (stereo not drawn) | –
